In article PMC7515484, “Sphingosine kinase 2 inhibitor ABC294640 suppresses neuronal excitability and inhibits multiple endogenously and exogenously expressed voltage-gated ion channels in cultured cells” (Channels, 2020):

Key:
KV4.2 = biological target: T1, KV4.2 (Homo sapiens, UniProt Q9NZV8); assay: whole-cell patch clamp, persistent current, transfected HEK293T cells; assay type: cell-based
T1 construct: gene KCND2
T1 sequence (Q9NZV8 1-630): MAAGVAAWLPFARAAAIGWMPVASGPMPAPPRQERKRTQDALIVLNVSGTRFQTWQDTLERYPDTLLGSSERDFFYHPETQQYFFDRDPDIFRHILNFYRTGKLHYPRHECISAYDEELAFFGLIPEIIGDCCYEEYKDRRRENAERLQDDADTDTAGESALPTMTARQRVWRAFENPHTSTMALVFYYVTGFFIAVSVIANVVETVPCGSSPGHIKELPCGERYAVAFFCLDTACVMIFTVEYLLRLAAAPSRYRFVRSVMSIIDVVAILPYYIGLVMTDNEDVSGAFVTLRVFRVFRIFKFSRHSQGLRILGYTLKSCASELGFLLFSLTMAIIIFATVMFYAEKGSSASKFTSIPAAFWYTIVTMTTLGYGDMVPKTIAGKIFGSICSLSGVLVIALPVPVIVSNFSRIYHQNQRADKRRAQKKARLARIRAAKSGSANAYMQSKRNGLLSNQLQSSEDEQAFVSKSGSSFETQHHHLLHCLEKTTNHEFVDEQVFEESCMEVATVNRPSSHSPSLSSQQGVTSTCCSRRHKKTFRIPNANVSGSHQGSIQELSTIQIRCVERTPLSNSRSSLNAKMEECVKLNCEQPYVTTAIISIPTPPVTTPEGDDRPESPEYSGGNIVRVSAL

KV1.4 = biological target: T2, KV1.4 (Homo sapiens, UniProt P22459); assay: as above; assay type: cell-based
T2 construct: gene KCNA4; human KCNA4 cDNA in pCMV3, expressed in HEK293T cells
T2 sequence (P22459 whole entry): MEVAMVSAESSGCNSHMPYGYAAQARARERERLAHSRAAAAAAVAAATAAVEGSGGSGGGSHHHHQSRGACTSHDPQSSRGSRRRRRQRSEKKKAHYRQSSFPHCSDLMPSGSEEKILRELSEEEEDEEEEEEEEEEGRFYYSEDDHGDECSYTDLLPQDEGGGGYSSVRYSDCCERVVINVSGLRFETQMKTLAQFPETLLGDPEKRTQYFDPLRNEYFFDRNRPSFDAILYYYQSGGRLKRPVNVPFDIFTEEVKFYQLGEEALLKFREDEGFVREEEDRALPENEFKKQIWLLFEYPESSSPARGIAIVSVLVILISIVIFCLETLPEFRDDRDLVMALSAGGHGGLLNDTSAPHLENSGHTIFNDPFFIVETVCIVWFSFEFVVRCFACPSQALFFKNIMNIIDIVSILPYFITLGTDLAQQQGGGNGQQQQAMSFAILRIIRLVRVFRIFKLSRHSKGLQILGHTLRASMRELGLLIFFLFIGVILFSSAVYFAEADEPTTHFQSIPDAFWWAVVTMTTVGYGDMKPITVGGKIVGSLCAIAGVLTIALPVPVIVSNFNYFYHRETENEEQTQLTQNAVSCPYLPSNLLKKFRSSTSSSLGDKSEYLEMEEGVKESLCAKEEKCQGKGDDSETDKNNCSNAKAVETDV

IC50 (KV4.2): 4.77 ± 0.68 µM | IC50 (KV1.4): 2.76 ± 0.28 µM
SMILES: O=C(NCc1ccncc1)C12CC3CC(C1)CC(c1ccc(Cl)cc1)(C3)C2 [ABC294640]
